The values that follow come from US20240124439A1, “Pyrido[2,3-D]Imidazole Derivatives and Their Use As Inhibitors of ITK for the Treatment of Skin Disease” (Pfizer Inc., priority 2020, published 2024).

Assay [1] relates to activated CD4+ human T-cells (IL-2). The experiment in a line: IL-2 inhibition in supernatants from activated CD4+ human T-cells (cisbio HTRF). Format: cell-based. To be noted: T-cell; CD3/CD28-activated CD4+ human T cells, ImmunoCult stimulation 20 to 24 hrs; geometric mean of count n. A digest of the protocol:
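Primary human CD4+ T cells activated with CD3/CD28 for 3 days and expanded to 7-9 days total, plated at 30,000 cells/well. Cells preincubated 15 min with compound, then stimulated with ImmunoCult (1:50 final) for 20-24 h at 37° C. Supernatant IL-2 measured by HTRF (665/615 nm); IC50 from four-parameter logistic fit.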
For orientation: TR-FRET usually uses a lanthanide donor and a delayed reading to cut background.

For assay [2], the target named is IL-2-Inducible T-Cell Kinase (ITK) (Homo sapiens (Human), UniProt Q08881). The experiment in a line: ITK enzyme assay (IL-2-inducible T-cell kinase activity). Format: biochemical. Particulars: geometric mean of count n. In short, it runs like this: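 Full-length N-Flag/C-His human ITK, pre-incubated 30 min at RT with compound. Reaction in HEPES pH 7.5 buffer with MgCl2, glutathione, gelatin and Brij-35, started with BTK peptide substrate, 60 min at RT. EDTA stop, PT66/APC TR-FRET detection overnight; IC50 fitted by four-parameter logistic.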

Molecules are shown by their SMILES.

IL-2-Inducible T-Cell Kinase (ITK), sequence (Q08881 whole entry): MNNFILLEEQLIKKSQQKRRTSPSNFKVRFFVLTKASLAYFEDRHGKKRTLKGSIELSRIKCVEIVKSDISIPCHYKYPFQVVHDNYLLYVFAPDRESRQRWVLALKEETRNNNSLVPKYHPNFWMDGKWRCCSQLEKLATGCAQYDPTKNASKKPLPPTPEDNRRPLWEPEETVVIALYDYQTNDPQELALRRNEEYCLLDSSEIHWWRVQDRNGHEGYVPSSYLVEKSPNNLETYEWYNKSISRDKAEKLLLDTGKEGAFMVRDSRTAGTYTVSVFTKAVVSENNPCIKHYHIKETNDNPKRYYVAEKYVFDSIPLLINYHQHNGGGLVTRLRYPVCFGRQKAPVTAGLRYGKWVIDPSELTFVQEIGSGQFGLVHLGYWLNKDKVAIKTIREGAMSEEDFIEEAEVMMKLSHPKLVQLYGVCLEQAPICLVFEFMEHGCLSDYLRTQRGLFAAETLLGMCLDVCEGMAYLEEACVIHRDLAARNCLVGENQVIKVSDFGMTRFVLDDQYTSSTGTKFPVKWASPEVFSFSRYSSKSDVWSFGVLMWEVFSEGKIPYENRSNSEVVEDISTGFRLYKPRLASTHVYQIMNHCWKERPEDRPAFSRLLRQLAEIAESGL

One may read the IC50 as the concentration at which inhibition is half-maximal. Take `CCC1(C(=O)N(C)c2cnc3[nH]c(-c4n[nH]c5c4CCC(C)(C)C5)nc3c2)CCOCC1` [Example 94, N-(2-(6,6-Dimethyl-4,5,6,7-tetrahydro-1H-indazol-3-yl)-3H-imidazo[4,5-b]pyridin-6-yl)-4-ethyl-N-methyltetrahydro-2H-pyran-4-carboxamide]: the IC50 amounted to 3170 nM in assay [1] and 307 nM in assay [2].

Consider `CN(C(=O)C1(F)CCOCC1)c1cnc2[nH]c(-c3n[nH]c4c3CCC(C)(C)C4)nc2c1` [Example 98, N-(2-(6,6-Dimethyl-4,5,6,7-tetrahydro-1H-indazol-3-yl)-3H-imidazo[4,5-b]pyridin-6-yl)-4-fluoro-N-methyltetrahydro-2H-pyran-4-carboxamide], for which the results for the IC50 in assay [1] and in assay [2] were 1310 nM and 122 nM, respectively.

Turning to `CN(C(=O)CC(C)(C)C(F)F)c1cnc2[nH]c(-c3n[nH]c4c3CCC(C)(C)C4)nc2c1` [Example 99, N-(2-(6,6-Dimethyl-4,5,6,7-tetrahydro-1H-indazol-3-yl)-3H-imidazo[4,5-b]pyridin-6-yl)-4,4-difluoro-N,3,3-trimethylbutanamide], the figures for the IC50 in assay [1] and in assay [2] were 233 nM and 59 nM, respectively.

As for `CN(C(=O)C1(C)CC(F)(F)C1)c1cnc2[nH]c(-c3n[nH]c4c3CCC(C)(C)C4)nc2c1` [Example 100, N-(2-(6,6-Dimethyl-4,5,6,7-tetrahydro-1H-indazol-3-yl)-3H-imidazo[4,5-b]pyridin-6-yl)-3,3-difluoro-N,1-dimethylcyclobutane-1-carboxamide], the values for the IC50 in assay [1] and in assay [2] were 682 nM and 104 nM, respectively.

Regarding `CN(C(=O)C1(F)CCCCC1)c1cnc2[nH]c(-c3n[nH]c4c3CCC(C)(C)C4)nc2c1` [Example 101, N-(2-(6,6-Dimethyl-4,5,6,7-tetrahydro-1H-indazol-3-yl)-3H-imidazo[4,5-b]pyridin-6-yl)-1-fluoro-N-methylcyclohexane-1-carboxamide], the IC50 in assay [1] came to 464 nM; in assay [2], 48 nM.

Consider `CC(C)CC(=O)N(C)c1cnc2[nH]c(-c3n[nH]c4c3CCC(C)(C)C4)nc2c1` [Example 102, N-(2-(6,6-Dimethyl-4,5,6,7-tetrahydro-1H-indazol-3-yl)-3H-imidazo[4,5-b]pyridin-6-yl)-N,3-dimethylbutanamide], for which the IC50 came to 749 nM in assay [1] and 269 nM in assay [2].

Regarding `CC(C)C(=O)N(C)c1cnc2[nH]c(-c3n[nH]c4c3CCC(C)(C)C4)nc2c1` [Example 103, N-(2-(6,6-Dimethyl-4,5,6,7-tetrahydro-1H-indazol-3-yl)-3H-imidazo[4,5-b]pyridin-6-yl)-N-methylisobutyramide], the IC50 in assay [1] is 392 nM; in assay [2], 104 nM.

`CN(C(=O)C1(C)CCC1)c1cnc2[nH]c(-c3n[nH]c4c3CCC(C)(C)C4)nc2c1` [Example 104, N-(2-(6,6-Dimethyl-4,5,6,7-tetrahydro-1H-indazol-3-yl)-3H-imidazo[4,5-b]pyridin-6-yl)-N,1-dimethylcyclobutane-1-carboxamide]: the IC50 in assay [1] is 517 nM; in assay [2], 101 nM.

`CN(C(=O)C1CCC1)c1cnc2[nH]c(-c3n[nH]c4c3CCC(C)(C)C4)nc2c1` [Example 105, N-(2-(6,6-Dimethyl-4,5,6,7-tetrahydro-1H-indazol-3-yl)-3H-imidazo[4,5-b]pyridin-6-yl)-N-methylcyclobutanecarboxamide]: the IC50 was 732 nM in assay [1] and 123 nM in assay [2].

Regarding `CC(C)CCC(=O)N(C)c1cnc2[nH]c(-c3n[nH]c4c3CCC(C)(C)C4)nc2c1` [Example 106, N-(2-(6,6-Dimethyl-4,5,6,7-tetrahydro-1H-indazol-3-yl)-3H-imidazo[4,5-b]pyridin-6-yl)-N,4-dimethylpentanamide], the IC50 in assay [1] was 1090 nM; in assay [2] it was 245 nM.

As for `CCC(CC)C(=O)N(C)c1cnc2[nH]c(-c3n[nH]c4c3CCC(C)(C)C4)nc2c1` [Example 107, N-(2-(6,6-Dimethyl-4,5,6,7-tetrahydro-1H-indazol-3-yl)-3H-imidazo[4,5-b]pyridin-6-yl)-2-ethyl-N-methylbutanamide], the IC50 was 1870 nM in assay [1] and 564 nM in assay [2].

In the case of `CCCC(=O)N(C)c1cnc2[nH]c(-c3n[nH]c4c3CCC(C)(C)C4)nc2c1` [Example 108, N-(2-(6,6-Dimethyl-4,5,6,7-tetrahydro-1H-indazol-3-yl)-3H-imidazo[4,5-b]pyridin-6-yl)-N-methylbutyramide], the IC50 worked out at 367 nM in assay [1] and 100 nM in assay [2].

Turning to `CN(C(=O)C1(C)CCOCC1)c1cnc2[nH]c(-c3n[nH]c4c3CCC(C)(C)C4)nc2c1` [Example 109, N-(2-(6,6-Dimethyl-4,5,6,7-tetrahydro-1H-indazol-3-yl)-3H-imidazo[4,5-b]pyridin-6-yl)-N,4-dimethyltetrahydro-2H-pyran-4-carboxamide], the IC50 in assay [1] was found to be 908 nM; in assay [2], 421 nM.

As to `CN(C(=O)C1CCC(F)(F)CC1)c1cnc2[nH]c(-c3n[nH]c4c3CCC(C)(C)C4)nc2c1` [Example 110, N-(2-(6,6-Dimethyl-4,5,6,7-tetrahydro-1H-indazol-3-yl)-3H-imidazo[4,5-b]pyridin-6-yl)-4,4-difluoro-N-methylcyclohexane-1-carboxamide], the IC50 in assay [1] was determined as 1590 nM; in assay [2], 554 nM.

For the compound `CN(C(=O)C1(C)CCCCO1)c1cnc2[nH]c(-c3n[nH]c4c3CCC(C)(C)C4)nc2c1` (centres unmarked) [Example 112, N-(2-(6,6-Dimethyl-4,5,6,7-tetrahydro-1H-indazol-3-yl)-3H-imidazo[4,5-b]pyridin-6-yl)-N,2-dimethyltetrahydro-2H-pyran-2-carboxamide], the IC50 in assay [1] was 895 nM; in assay [2] it was 234 nM.

As to `CN(C(=O)C1CCCC1)c1cnc2[nH]c(-c3n[nH]c4c3CCC(C)(C)C4)nc2c1` [Example 113, N-(2-(6,6-Dimethyl-4,5,6,7-tetrahydro-1H-indazol-3-yl)-3H-imidazo[4,5-b]pyridin-6-yl)-N-methylcyclopentanecarboxamide], the IC50 in assay [1] turned out to be 1620 nM; in assay [2], 350 nM.

Turning to `CN(C(=O)CC1CCOCC1)c1cnc2[nH]c(-c3n[nH]c4c3CCC(C)(C)C4)nc2c1` [Example 114, N-(2-(6,6-Dimethyl-4,5,6,7-tetrahydro-1H-indazol-3-yl)-3H-imidazo[4,5-b]pyridin-6-yl)-N-methyl-2-(tetrahydro-2H-pyran-4-yl)acetamide], the IC50 in assay [1] is 1510 nM; in assay [2], 156 nM.

Turning to `C[C@H](C(=O)N(C)c1cnc2[nH]c(-c3n[nH]c4c3C[C@@H]3C[C@]3(C)C4)nc2c1)N1C[C@H]2CC[C@@H]1CO2` [Example 115], the IC50 in assay [1] came out at 415 nM; in assay [2], 142 nM.

In the case of `C[C@@H](C(=O)N(C)c1cnc2[nH]c(-c3n[nH]c4c3C[C@@H]3C[C@]3(C)C4)nc2c1)N1C[C@H]2CC[C@@H]1CO2` [Example 116, (S)-2-((1R,4R)-2-Oxa-5-azabicyclo[2.2.2]octan-5-yl)-N-methyl-N-(2-((4aS,5aR)-5a-methyl-1,4,4a,5,5a,6-hexahydrocyclopropa[f]indazol-3-yl)-3H-imidazo[4,5-b]pyridin-6-yl)propanamide], the IC50 in assay [1] was found to be 172 nM; in assay [2], 18 nM.
